Positions of bridges follow the written chain, without caps; N, C: chain ends. No end group written: not given here.

Assay [1] has as its system stomach cancer cell lines NUGC3. Description: Mouse xenograft experiment (tumor formation). In kind it is in vivo, Balb-c/nude mouse. As to conditions: intraperitoneally 10 mg/kg once a day. The procedure: A mouse xenograft experiment was performed to analyze a tumor formation inhibitory effect of cancer therapeutic peptide fragments. Specifically, 5×10^6 stomach cancer cell lines NUGC3 were transplanted by subcutaneous injection into a flank site of a 6-week-old female Balb-c/nude mouse, and after one week (average tumor size 100 mm^3), Vehicle (0.9% saline), OCP5 (SEQ ID NO: 12), OCP5-VGLL1S84-15C (SEQ ID NO: 29), or OCP5-VGLL1S84-7C (SEQ ID NO: 33) was each administered intraperitoneally at 10 mg/kg once a day. Tumor size was measured with a digital caliper at 2-day intervals from the start of drug administration, and the tumor size (tumor size (mm^3)=long axis x short axis2) was calculated. The experiment was terminated when the average tumor size of the OCP5-administered group was 1,000 mm3, and then the tumor was extracted, and the tumor weight was measured.

Assay [2] has as its system MMP9. Description: MMP9 Western blot of extracted xenograft tumor tissue. In kind it is in vivo. As to conditions: extracted NUGC3 xenograft tumor, 10 mg/kg once a day. The procedure:
After completion of the in vivo xenograft experiment in Example 6-1, changes in the protein expression level of MMP9 were measured in the extracted tumor tissue using immunohistochemical staining and Western blot methods. In addition, the amount of MMP9 protein in the tumor tissue was analyzed by Western blot experiment. The protein amount in the sample was quantified using a BCA assay method, and 20 μg of each sample was loaded, electrophoresed on SDS-PAGE, and then transferred to a nitrocellulose membrane. The membrane was blocked in a 5% skim milk solution for 1 hour, and then placed in MMP9 (1:1000, Abcam #ab76003) or ACTB (1:10,000, SantaCruz #sc-47778) antibody solution and reacted overnight at 4° C. The next day, the primary antibody was removed, the membrane was washed with a TBST buffer, and a HRP-conjugated anti-mouse or anti-rabbit secondary antibody was diluted at 1:10,000 in the 5% skim milk solution, and then reacted with the membrane at room temperature for 1 hour. The blot reacted with a SuperSignalTM West Pico Chemiluminescent substrate (ThermoFisher #34580) and analyzed on the ChemiDoc XRS+ System (Bio-Rad Laboratories, #1708265).
For orientation: A western blot detects proteins with antibodies after separation by electrophoresis.

Assay [3] deals with MMP9. Put plainly: MMP9 immunohistochemical staining of extracted xenograft tumor tissue. The assay is classed as in vivo. As to conditions: extracted NUGC3 xenograft tumor, 10 mg/kg once a day. The procedure: After completion of the in vivo xenograft experiment in Example 6-1, changes in the protein expression level of MMP9 were measured in the extracted tumor tissue using immunohistochemical staining and Western blot methods. The immunohistochemical staining was performed by the following method. The extracted tumor tissue was immobilized with 4% paraformaldehyde and embedded in paraffin, and then the tissue was sectioned at 4 μm thickness and attached to a glass slide. The tissue was hydrated with a xylene-ethanol reaction, and then reacted with an MMP9 antibody (1:100) at 4° C. overnight. The next day, the tissue sections were washed with PBS and reacted with a secondary antibody HRP-conjugated anti-rabbit antibody (1:100) at room temperature for 1 hour, and then the antibody was washed with PBS, and the reacted MMP9 was searched through the reaction by a DAB substrate kit (Vecotr Laboratories, #SK-4100). After DAB washing, nuclear staining was performed with a hematoxylin solution, and the tissue was emulsified through an ethanol-xylene reaction and then mounted. Tissue photographs were obtained using a Nikon TS2 microscope.

Assay [4] concerns stomach cancer cell lines NUGC3. Description: Wound healing assay (cancer cell migration). To be noted: 10 μM. The assay is classed as cell-based. The procedure:
In order to analyze the possibility of metastasis inhibitory efficacy of stomach cancer cells by anticancer therapeutic peptides, a wound healing assay was performed to evaluate a migration inhibitory effect of stomach cancer cells. Specifically, 5×10^4 stomach cancer cell lines NUGC3 were subcultured in a 24-well plate, and then the next day, scratches were made at the center of the cells, and 10 μM OCP5-VGLL1S84-7C (SEQ ID NO: 33) was mixed into the cell culture medium and administered. Real-time cell images were acquired through Cytation5 (Biotek), and the degree of cancer cell migration was analyzed by calculating the average area (wound width, B) of the scratch area and the degree (% Confluence, C) to which cells were filled.

Assay [5] concerns breast cancer cell line MCF7. Put plainly: Cell growth inhibition (sulforhodamine B staining). To be noted: MCF7, 10 μM. The assay is classed as cell-based. As to the method: (§1) Specifically, in order to confirm cell growth ability, a stomach cancer cell line NUGC3 and a breast cancer cell line SK-BR-3 were each subcultured in a 96-well plate, and the next day, peptide fragments Con, 7, and CC of Table 2 were treated with 100 μM each to the cell lines. After 72 hours, the cells were immobilized with a 10% trichloroacetic acid solution, and then stained the cell with a 0.4% sulforhodamine B solution for 1 hour, washed with acetic acid, and dried. Thereafter, the dried cells were dissolved in a 10 mM Tris solution and absorbance was measured at 510 nm using an ELISA plate reader.
(§2) It was investigated whether the cancer therapeutic peptide synthesized in this study could be used to treat various cancers other than stomach cancer. For this purpose, the cancer therapeutic peptides OCP and OCP5-VGLLIS84-7C were treated in stomach cancer cell lines […] and AGS, lung cancer cell lines H460 and A549, pancreatic cancer cell lines AsPC-1 and MIAPaca-1, and breast cancer cell lines MCF7 and MDA-MB-231 at concentrations of 10 μM. Thereafter, as a result of analysis in the same manner as in Example 1, the growth inhibitory efficacy of OCP5-VGLLIS84-7C cancer cells was confirmed compared to the control OCP5 (FIG. 14).
In general terms: Sulforhodamine B stains cellular protein and so reports cell mass.

The subject of assay [6] is stomach cancer cell line NUGC2. Description: Cell growth inhibition (sulforhodamine B staining). The assay is classed as cell-based. To be noted: NUGC2, 10 μM. The procedure:
as §1, §2

The subject of assay [7] is pancreatic cancer cell line AsPC-1. Description: Cell growth inhibition (sulforhodamine B staining). To be noted: AsPC-1, 10 μM. In kind it is cell-based. The procedure: as §1, §2
Assay [8] relates to lung cancer cell line A549. Put plainly: Cell growth inhibition (sulforhodamine B staining). In kind it is cell-based. As to conditions: A549, 10 μM. The procedure: as §1, §2
Assay [9] has as its system breast cancer cell line MDA-MB-231. Put plainly: Cell growth inhibition (sulforhodamine B staining). To be noted: MDA-MB-231, 10 μM. In kind it is cell-based. As to the method: as §1, §2
Assay [10] has as its system lung cancer cell line H460. Description: Cell growth inhibition (sulforhodamine B staining). In kind it is cell-based. As to conditions: H460, 10 μM. As to the method:
as §1, §2

Assay [11] deals with pancreatic cancer cell line MIAPaca-1. Put plainly: Cell growth inhibition (sulforhodamine B staining). In kind it is cell-based. To be noted: MIAPaca-1, 10 μM. As to the method:
as §1, §2

The subject of assay [12] is stomach cancer cell line NUGC3. Put plainly: Cell growth inhibition (sulforhodamine B staining). The assay is classed as cell-based. As to the method:
as §1
In order to compare the cancer cell growth inhibitory effects of cancer therapeutic peptides according to cell-penetrating peptides, the stomach cancer cell line NUGC3 was treated with 10 μM each of cancer therapeutic peptide fragments in Table 4, and the cancer cell growth inhibitory effects were screened in the same manner as in Example 1.
Specifically, in order to confirm the cancer cell inhibition enhancing effect by enhancing the cell permeability of OCP5 among the novel synthesized CPPs, a cancer therapeutic peptide fragment represented by SEQ ID NO: 6 including the existing TAT and a cancer therapeutic peptide fragment represented by SEQ ID NO: 31 including the novel synthesized OCP5 were used. The stomach cancer cell lines NUGC3 and AGS, the breast cancer cell line SK-BR-3, and the pancreatic cancer cell line Capan-1 were treated with 25 μM SEQ ID NO: 6 and 100 μM SEQ ID NO: 31 for 72 hours, respectively, and the cancer cell growth inhibitory effects were compared in the same manner as in Example 1. […] Through this, it was confirmed that the novel CPP may be applied more effectively than the existing TAT to inhibit the cancer cell growth by the anticancer peptides.
To analyze the cancer cell growth inhibitory effect according to a length of the anticancer peptide fragment, OCP9-VGLLIS84-7 (SEQ ID NO: 43), OCP9-VGLLIS84-9CC (SEQ ID NO: 46), and OCP9-VGLLIS84-15 (SEQ ID NO: 49) were treated for each concentration to analyze the growth inhibitory effects of stomach cancer cell lines NUGC3 and NCI-N87. When stomach cancer cells were treated with cancer therapeutic peptides, the cancer cell growth inhibitory efficacy was shown in a concentration-dependent manner. In addition, it was confirmed that the growth inhibitory effect on the stomach cancer cell lines increased as the length of the anticancer peptide fragment increased (FIG. 7).
Specifically, the cancer cell growth inhibitory effect according to partial or entire cyclization of the anticancer peptide fragment was analyzed. The stomach cancer cell line NUGC3 was treated with a CPP fragment OCP9 (SEQ ID NO: 16), a partially cyclized sequence […] (SEQ ID NO: 33), or a sequence OCP9-VGLLIS84-7CC (SEQ ID NO: 40) including an entirely cyclized anticancer peptide at different concentrations of 1, 2.5, 5, 10, and 20 μM, respectively, and the cancer cell growth inhibitory effects were compared in the same manner as in Example 1.

The test system of assay [13] is stomach cancer cell line AGS. Put plainly: Cell growth inhibition (sulforhodamine B staining). The assay is classed as cell-based. As to conditions: 10 μM. The procedure: as §1
(§3) Specifically, in order to confirm the cancer cell inhibition enhancing effect by enhancing the cell permeability of OCP5 among the novel synthesized CPPs, a cancer therapeutic peptide fragment represented by SEQ ID NO: 6 including the existing TAT and a cancer therapeutic peptide fragment represented by SEQ ID NO: 31 including the novel synthesized OCP5 were used. The stomach cancer cell lines NUGC3 and AGS, the breast cancer cell line SK-BR-3, and the pancreatic cancer cell line Capan-1 were treated with 25 μM SEQ ID NO: 6 and 100 μM SEQ ID NO: 31 for 72 hours, respectively, and the cancer cell growth inhibitory effects were compared in the same manner as in Example 1. […]

For assay [14], the system named is breast cancer cell line SK-BR-3. Put plainly: Cell growth inhibition (sulforhodamine B staining). To be noted: SK-BR-3, 100 μM, 72 hours; compared with linear anticancer peptide (SEQ ID NO: 5). In kind it is cell-based. As to the method:
as §1, §3

Turning to “SIIFRIFLHLQK-CPNQWRYSSPWTKPQPC-RRR (SIIFRIFLHLQKCPNQWRYSSPWTKPQPCRRR; disulfide 13-29) [OCP5-VGLL1S84-15C]”, the “tumor formation inhibitory effect compared to the vehicle group” value in assay [1] stood at 63%. The “amount of MMP9 in tumor tissues (Western blot)” value in the assay on MMP9 [2] was “reduced”. Also, the “amount of MMP9 protein in the tumor (immunohistochemical staining)” value in the assay on MMP9 [3] was “significantly reduced”.

Consider “SIIFRIFLHLQK-CYSSPWTKC-RRR (SIIFRIFLHLQKCYSSPWTKCRRR; disulfide 13-21) [OCP5-VGLL1S84-7C]”, for which, in assay [4], the “migration of cancer cells (wound width, % Confluence)” value is “inhibited”. The “tumor formation inhibitory effect compared to the vehicle group” value in [1] was found to be 45%. In addition, the “growth inhibitory efficacy compared to the control OCP5” value in assay [5], in [6], in assay [7], in assay [8], in [9] and in assay [10] was “confirmed” in each case. In addition, the “growth inhibitory efficacy compared to the control OCP5” value in assay [11] and in [13] was “confirmed” throughout. Moreover, the “cancer cell growth inhibitory effect” value in assay [12] (NUGC3, 10 μM screening of Table 4 peptides) is “significant cancer cell growth inhibitory effect”. The “amount of MMP9 in tumor tissues (Western blot)” value in the assay with MMP9 [2] is given as “reduced”. Besides, the “amount of MMP9 protein in the tumor (immunohistochemical staining)” value with MMP9 [3] is “significantly reduced”.

Take “YGRKKRRQRRR-CYSSPWTKC (YGRKKRRQRRRCYSSPWTKC; disulfide 12-20) [SEQ ID NO: 6, TAT-cyclic anticancer peptide]”: the “cell growth inhibitory effect” value is on record as “significantly superior” in assay [12] (NUGC3, 100 μM, 72 hours, compared with linear anticancer peptide (SEQ ID NO: 5)) and “significantly superior” in assay [14].

(Values after US20240336659A1, “CELL-PENETRATING PEPTIDE, ANTI-CANCER PEPTIDE, AND PHARMACEUTICAL COMPOSITION FOR PREVENTING OR TREATING CANCER, COMPRISING SAME” (ONECUREGEN CO., LTD., priority 2021, published 2024).)
